Molecules are shown by their SMILES. Where “and” joins values, the source holds several entries; their conditions need not be identical. Equal values may be shown once. Read-outs that look alike come from different tables or passages of the source.

The source of these data is US4588715A, “Heptenoic acid derivatives” (Sandoz, Inc., priority 1984, dated 1986).

Test [1] deals with Cholesterol Biosynthesis. Description: Test B. In Vitro Cell Culture Cholesterol Biosynthesis Screen (Fu5AH rat hepatoma cell line). In kind it is cell-based. The conditions noted are these: Fu5AH rat hepatoma cells, [14C]acetate, 3 hours; for inhibition at 10 µM: concentration 10 μM; for inhibition at 1 µM: concentration 1 μM. The method, then:
Test B. In Vitro Cell Culture Cholesterol Biosynthesis Screen
The cell culture is prepared as follows: Stock monolayer cultures of the Fu5AH rat hepatoma cell line (originally obtained from G. Rothblat; see Rothblat, Lipids 9, 526-535 (1974) are routinely maintained in Eagle's Minimum Essential Medium (EMEM) supplemented with 10% fetal bovine serum (FBS) in 75 cm^2. tissue culture flasks. For these studies, when the cultures reach confluence, they are removed by mild enzymatic treatment with 0.25% trypsin in Hanks' balanced salt solution (without calcium and magnesium). After centrifugation of the cell suspension and aspiration of the enzymatic solution, the cell pellet is resuspended in an appropriate volume of media for seeding into 60 mm. tissue culture dishes. The cultures are incubated at 37° C. in an atmosphere of high humidity and 5% carbon dioxide. When the cultures are confluent (approximately 5 days), they are ready for use. The culture media is aspirated from the dishes and replaced with 3 ml. of EMEM supplemented with 5 mg./ml. of delipidized serum protein (DLSP) prepared by the method of Rothblat et al., In Vitro 12, 554-557 (1976). […] Enhanced 3-hydroxy-3-methylglutaryl Coenzyme A reductase (HMG-CoA reductase) activity is measurable in the cells in response to the lack of exogenous sterol. Following approximately 24 hours incubation at 37° C. in the DLSP supplemented media, the assay is initiated by the addition of 3μCi of [^14 C]acetate and the test substances solubilized in dimethylsulfoxide (DMSO) or distilled water. Solvent controls and compactin-treated controls are always prepared. Triplicate 60 mm. tissue culture dishes are run for each group. After 3 hours incubation at 37° C., the cultures are examined microscopically using an inverted phase contrast microscope. Notations are made of any morphological changes which may have occurred in the cultures. The media is aspirated and the cell layer is gently washed twice with 0.9% sodium chloride solution (saline). The cell layer is then harvested in 3 ml. of 0.9% saline by gentle scraping with a rubber policeman and transferred to a clean glass tube with Teflon lined cap. The dishes are rinsed with 3 ml. of 0.9 % saline and rescraped, and the cells are combined with the first harvest. The tubes are centrifuged at 1500 r.p.m. for 10 minutes in an IEC PR-J centrifuge, and the supernatant is aspirated.
The cells are then extracted as follows: One ml. of 100% ethanol is added to the cell pellet followed by sonication for 10 seconds with a "LO" setting of 50 on a Bronwell Biosonik IV. One hundred μL. are taken for protein determination. One ml. of 15% potassium hydroxide (KOH) is added, and the samples are thoroughly vortexed. Saponification is accomplished by heating the ethanol-KOH treated samples at 60° C. for 60 minutes in a water bath. Following dilution of the samples with 2 ml. of distilled water, they are extracted three times with 7 ml. of petroleum ether. The petroleum ether extracts are then washed three times with 2 ml. of distilled water and finally taken to dryness under a stream of nitrogen.
The obtained samples are then analyzed by thin layer chromatography (TLC) as follows: Residues from the petroleum ether extraction are taken up in a small volume of hexane and spotted on silica gel 60 TLC plates (E. Merck). Development of the plates is carried out in a 150 parts by volume hexane: 50 parts by volume diethyl ether: 5 parts by volume glacial acetic acid solvent system using a three phase development procedure. Visualization is accomplished in an iodine vapor chamber. The plates are divided into five sections such that each section contains the molecules having the following approximate Rf values: section 1-0-0.4, section 2-0.4-0.55, section 3-0.55-0.7, section 4-0.7-0.9 and section 5-0.9-1.0. Section 2 contains the non-saponifiable sterols. The five sections of the TLC plates are scraped into scintillation vials. […]

In test [2] the test system is Cholesterol Biosynthesis. Kind of test: Test C: In Vivo Cholesterol Biosynthesis Inhibition Tests. Also on record: species or system male Wistar Royal Hart rats. The conditions noted are these: for ED50: Rattus norvegicus. The method, then:
Test C: In Vivo Cholesterol Biosynthesis Inhibition Tests: In vivo studies utilize male Wistar Royal Hart rats weighing 150±20 g. which have been kept for 7-10 days on an altered light cycle (6:30 A.M.-6:30 P.M. dark) housed two per cage and fed powdered Purina Rat Chow and water ad libitum. Three hours before the diurnal maximum of cholesterol synthesis at mid-dark, the rats are administered the test substances dissolved or as a suspension in 0.5% carboxymethylcellulose in a volume of 1 ml./100 g. body weight. Controls receive vehicle alone. One hour after receiving the test substance, the rats are injected intraperitoneally with about 25 μCi/100 g. body weight of sodium [1-^14 C]acetate 1-3 mCi/mmol. Two hours after mid-dark, blood samples are obtained under sodium hexobarbitol anesthesia and the serum separated by centrifugation.
Serum samples are saponified and neutralized, and the 3β-hydroxy sterols are precipitated with digitonin basically as described by Sperry et al., J. Biol. Chem. 187,97 (1950). The [^14 C]digitonides are then counted by liquid scintillation spectrometry. After correcting for efficiencies, the results are calculated in nCi (nanocuries) of sterol formed per 100 ml. of serum. Inhibition of sterol synthesis is calculated from the reduction in the nCi of sterols formed from test groups compared to controls.

For another test, the target named is T1, HMG-CoA reductase (Rattus norvegicus, UniProt P51639).
T1 construct: the microsomes are the source of the HMG-CoA reductase enzyme; from tissue; host or cells: liver microsomes, male Sprague-Dawley rats
T1 sequence (P51639 1-887): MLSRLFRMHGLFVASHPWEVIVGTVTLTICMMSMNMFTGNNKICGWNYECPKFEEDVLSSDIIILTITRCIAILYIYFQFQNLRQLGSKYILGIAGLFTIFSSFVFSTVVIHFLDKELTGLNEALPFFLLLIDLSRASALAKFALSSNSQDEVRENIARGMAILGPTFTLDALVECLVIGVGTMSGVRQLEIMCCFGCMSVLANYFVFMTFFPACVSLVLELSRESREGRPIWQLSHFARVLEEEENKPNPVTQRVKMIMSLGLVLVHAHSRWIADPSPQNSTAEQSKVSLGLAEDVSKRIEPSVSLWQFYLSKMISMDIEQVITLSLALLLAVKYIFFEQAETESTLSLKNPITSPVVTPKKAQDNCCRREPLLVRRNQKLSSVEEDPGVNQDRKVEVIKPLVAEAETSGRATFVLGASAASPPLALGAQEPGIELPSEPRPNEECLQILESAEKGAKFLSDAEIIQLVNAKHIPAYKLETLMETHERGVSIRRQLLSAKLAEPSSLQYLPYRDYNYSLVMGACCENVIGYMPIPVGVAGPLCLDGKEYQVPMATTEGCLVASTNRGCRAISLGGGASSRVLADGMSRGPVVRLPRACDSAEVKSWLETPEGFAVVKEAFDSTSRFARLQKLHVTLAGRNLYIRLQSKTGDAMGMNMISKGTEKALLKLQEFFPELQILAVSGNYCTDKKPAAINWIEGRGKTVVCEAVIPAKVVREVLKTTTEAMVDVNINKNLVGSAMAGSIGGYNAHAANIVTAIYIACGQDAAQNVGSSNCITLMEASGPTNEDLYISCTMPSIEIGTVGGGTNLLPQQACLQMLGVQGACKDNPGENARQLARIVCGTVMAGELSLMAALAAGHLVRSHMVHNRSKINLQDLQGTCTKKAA
Description: Test A. In Vitro Microsomal Assay of HMG-CoA Reductase Inhibition. In kind it is biochemical. The conditions noted are these: saponified products M=Na, unsaponified products tested in DMA. The method, then: Test A. In Vitro Microsomal Assay of HMG-CoA Reductase Inhibition
200 μl. aliquots (1.08-1.50 mg./ml.) of rat liver microsomal suspensions, freshly prepared from male Sprague-Dawley rats (150-225 g. body weight), in Buffer A with 10 mmol. dithiothreitol are incubated with 10 μl. test substance dissolved in dimethylacetamide and assayed for HMG-CoA reductase activity as described by Ackerman et al., J. Lipid Res. 18,408-413 (1977). In the assay the microsomes are the source of the HMG-CoA reductase enzyme which catalyzes the reduction of HMG-CoA to mevalonate. The assay employs a chloroform extraction to separate the product, [^14 C]mevalonolactone, formed by the HMG-CoA reductase reaction from the subsubstrate, [^14 C]HMG-CoA. [^3 H]mevalonolactone is added as an internal reference. Inhibition of HMG-CoA reductase is calculated from the decrease in specific activity [^14 C/^3 H]mevalonate) of test groups compared to controls.
IC50 is the concentration of the test substance in the assay system

For `C[Si](C)(c1ccccc1)c1ccccc1/C=C/[C@@H]1C[C@@H](O)CC(=O)O1` (relative stereo) [Example 4 (Ia"'), 4-Hydroxy-6{2-[2-(dimethylphenylsilyl)phenyl]ethenyl}-2H-tetrahydropyran-2-one], the inhibition (as a rule, the share of the control response that was lost under treatment) at 10 µM in the test with Cholesterol Biosynthesis [1] stood at 56%. Regarding `CC[C@H](C)C(=O)O[C@H]1C[C@@H](C)C=C2C=C[C@H](C)[C@H](CC[C@@H]3C[C@@H](O)CC(=O)O3)[C@H]21` [Mevinolin], in the test with Cholesterol Biosynthesis [2], the 50% effect level (ED50) was put at a dose of 0.41 mg/kg. `CCOC(=O)C[C@H](O)C[C@H](O)/C=C/c1c(C)cc(OC)cc1[Si](C)(C)c1ccccc1` (relative stereo) [Example 5e (Ia')] had an inhibition at 10 µM in the test with Cholesterol Biosynthesis [1] of 28%. The same measure, in the same setting: the value for `Cc1cc(C)c(/C=C/[C@@H]2C[C@@H](O)CC(=O)O2)c([Si](C)(C)c2ccccc2)c1` (relative stereo) [Example 6a (Ia"')] was 73%. Take `Cc1cc(Cl)cc([Si](C)(C)c2ccccc2)c1/C=C/[C@@H]1C[C@@H](O)CC(=O)O1` (relative stereo) [Example 6b (Ia"')]: half-maximal inhibition against HMG-CoA reductase (IC50, rat liver microsomes) (IC50) was put at 16.4 µM. On the same count and under the same terms, the value for `Cc1cc(C)c(/C=C/[C@@H](O)C[C@@H](O)CC(=O)O)c([Si](C)(C)c2ccccc2)c1` (relative stereo) [Example 6a (Ia^s)] was 6.9 µM. Consider `CC[C@H](C)C(=O)O[C@H]1CCC=C2C=C[C@H](C)[C@H](CC[C@@H]3C[C@@H](O)CC(=O)O3)[C@H]21` [compactin, reference compound], for which, at HMG-CoA reductase (rat liver microsomes, read-out: IC50), the half-inhibitory concentration (IC50) (commonly the concentration that inhibits the measured activity by half) amounted to 0.8 µM. In the test on Cholesterol Biosynthesis [1] (concentration 0.08 μM), the inhibition at 0.08 µM amounted to 50%. Besides, the ED50 (as a rule, the dose that gives a 50% effect, or the effect in half of the subjects) with Cholesterol Biosynthesis [2] (standard, serum sterol synthesis, rats, read-out: ED50) was 3.5 mg/kg. `C[Si](c1ccccc1)(c1ccccc1)c1ccccc1/C=C/[C@@H]1C[C@@H](O)CC(=O)O1` (relative stereo) [Example 3 (Ia"'), 4-Hydroxy-6{2-[2-(methyldiphenylsilyl)phenyl]ethenyl}-2H-tetrahydropyran-2-one(trans,trans)] had an inhibition at 10 µM in the test with Cholesterol Biosynthesis [1] of 74%. On HMG-CoA reductase (IC50, rat liver microsomes), `Cc1cccc([Si](C)(C)c2ccccc2)c1/C=C/[C@@H](O)C[C@@H](O)CC(=O)O` (relative stereo) [Example 6g (Ia^s)] had a concentration for half-maximal inhibition (IC50) of 4.3 µM. `CCOC(=O)C[C@H](O)C[C@H](O)/C=C/c1c(C)cc(C)cc1[Si](C)(C)c1ccccc1` (relative stereo) [Example 5a (Ia')]: the IC50 at HMG-CoA reductase (IC50, rat liver microsomes) is 14.7 µM. In the test with Cholesterol Biosynthesis [1], this compound gave an inhibition at 1 µM of 47%. `CCOC(=O)C[C@H](O)C[C@H](O)/C=C/c1c(C)cc(Cl)cc1[Si](C)(c1ccccc1)c1ccccc1` (relative stereo) [Example 7a (Ia')] had an inhibition at 10 µM with Cholesterol Biosynthesis [1] of 17%. With `Cc1ccc(C)c([Si](C)(C)c2ccccc2)c1/C=C/[C@@H]1C[C@@H](O)CC(=O)O1` (relative stereo) [Example 10 (Ib"'), 6-{2-[3,6-dimethyl-2-(dimethylphenylsilyl)phenyl]ethenyl}4-hydroxy-tetrahydro-2H-pyran-2-one (trans,trans)], on HMG-CoA reductase (IC50, rat liver microsomes), 24.4 µM corresponded to half-maximal inhibition (IC50). The same compound displayed an inhibition at 10 µM with Cholesterol Biosynthesis [1] of 63%. For `Cc1ccc(C)c([Si](C)(C)c2ccccc2)c1/C=C/[C@@H](O)C[C@@H](O)CC(=O)O` (relative stereo) [Example 10 (Ib^s)], it took 9 µM to reach half-maximal inhibition on HMG-CoA reductase (IC50, rat liver microsomes) (IC50). In the case of `Cc1cc(Cl)cc([Si](C)(C)c2ccccc2)c1/C=C/[C@@H](O)C[C@@H](O)CC(=O)O` (relative stereo) [Example 6b (Ia^s)], the half-inhibitory concentration (IC50) on HMG-CoA reductase (IC50, rat liver microsomes) was 17.1 µM and 14.2 µM. At HMG-CoA reductase (IC50, rat liver microsomes), `Cc1cccc([Si](C)(c2ccccc2)c2ccccc2)c1/C=C/[C@@H](O)C[C@@H](O)CC(=O)O` (relative stereo) [Example 8b (Ia^s)] registered an IC50 of 52.4 µM. In turn, `Cc1cccc([Si](C)(C)c2ccccc2)c1/C=C/[C@@H]1C[C@@H](O)CC(=O)O1` (relative stereo) [Example 6g (Ia"')] came in with a concentration for half-maximal inhibition (IC50) against HMG-CoA reductase (IC50, rat liver microsomes) of 27.2 µM. Besides, at 10 µM the inhibition in the test on Cholesterol Biosynthesis [1] was 65%. For the same compound, the % Inhibition – broadly, the change of the read-out against control, counted positive when it falls – in the test on Cholesterol Biosynthesis [2] (dose 48 mg/kg, serum sterol synthesis, rats) came out at 57%. Regarding `CCOC(=O)C[C@H](O)C[C@H](O)/C=C/c1c(C)ccc(C)c1[Si](C)(C)c1ccccc1` (relative stereo) [Example 9 (Ib'), Ethyl 7-[3,6-dimethyl-(2-dimethylphenylsilyl)-phenyl]-3,5-dihydroxy hept-6-enoate, (erythro,trans)], the IC50 at HMG-CoA reductase (IC50, rat liver microsomes) was determined as 28.1 µM. The compound further registered an inhibition at 1 µM in the test on Cholesterol Biosynthesis [1] of 19%. As to `Cc1cc(Cl)cc([Si](C)(c2ccccc2)c2ccccc2)c1/C=C/[C@@H]1C[C@@H](O)CC(=O)O1` (relative stereo) [Example 8a (Ia"')], the inhibition at 10 µM with Cholesterol Biosynthesis [1] came out at 33%.
